In general, inhibition refers to the share of the control response that was lost under treatment.

From ChEMBL document CHEMBL3217517, “Alkynylation of N-(3-iodopyridin-2-yl)sulfonamide under Pd/CCu catalysis: a direct one pot synthesis of 7-azaindoles and their pharmacological evaluation as potential inhibitors of sirtuins” (Medchemcomm, 2011) come the findings set out here.

Data set [1] concerns the target NAD-dependent histone deacetylase SIR2 (Saccharomyces cerevisiae S288c) (UniProt P06700). Briefly: Inhibition of Ura3 gene expressing yeast NAD-dependent HDAC activity of Sir2 assessed as growth inhibition at 50 uM after 24 to 48 hrs by reporter silencing assay in presence of 5-fluoro orotic acid.
Data set [2] addresses NAD-dependent histone deacetylase SIR2 (Saccharomyces cerevisiae S288c, UniProt P06700). Description: Inhibition of Ura3 gene expressing yeast NAD-dependent HDAC activity of Sir2 assessed as growth inhibition after 24 to 48 hrs by reporter silencing assay in absence of 5-fluoro orotic acid.
The target in data set [3] is NAD-dependent histone deacetylase SIR2 (Saccharomyces cerevisiae S288c) (UniProt P06700). Briefly: Inhibition of Ura3 gene expressing yeast NAD-dependent HDAC activity of Sir2 assessed as growth inhibition after 24 to 48 hrs by reporter silencing assay in presence of 5-fluoro orotic acid.
NAD-dependent histone deacetylase SIR2 (Saccharomyces cerevisiae S288c), sequence (P06700 whole entry): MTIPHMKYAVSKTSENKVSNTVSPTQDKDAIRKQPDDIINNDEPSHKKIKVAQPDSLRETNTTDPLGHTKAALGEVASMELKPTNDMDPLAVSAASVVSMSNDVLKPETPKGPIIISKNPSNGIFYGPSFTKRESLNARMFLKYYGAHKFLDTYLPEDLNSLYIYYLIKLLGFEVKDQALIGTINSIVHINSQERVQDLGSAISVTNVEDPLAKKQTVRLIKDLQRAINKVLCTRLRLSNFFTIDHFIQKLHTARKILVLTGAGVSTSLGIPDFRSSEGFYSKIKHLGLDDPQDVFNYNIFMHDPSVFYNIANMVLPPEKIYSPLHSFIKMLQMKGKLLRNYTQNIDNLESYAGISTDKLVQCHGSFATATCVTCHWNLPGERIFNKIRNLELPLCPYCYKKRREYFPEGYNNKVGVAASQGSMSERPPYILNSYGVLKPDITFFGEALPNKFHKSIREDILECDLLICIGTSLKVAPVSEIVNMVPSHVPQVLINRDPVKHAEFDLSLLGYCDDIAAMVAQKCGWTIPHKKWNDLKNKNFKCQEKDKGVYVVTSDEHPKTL

NAD-dependent histone deacetylase SIR2, sequence (P06700 whole entry): as above

As to `O=S(=O)(c1ccccc1)n1c(CCO)cc2cccnc21`, in data set [1], the inhibition was found to be 15%.
As to `N#CCCCc1cc2cccnc2n1S(=O)(=O)c1ccccc1`, in data set [1], the inhibition was 10%.
Consider `O=S(=O)(c1ccccc1)n1c(-c2ccccc2)cc2cccnc21`, for which the inhibition in data set [1] was 37%.
Turning to `O=S(=O)(c1ccccc1)n1c(CO)cc2cccnc21`, the Activity entry in data set [2] was “Non-toxic”.
As to `CC(C)(C)c1cc2cccnc2n1S(=O)(=O)c1ccccc1`, in data set [2], the Activity entry is given as “Non-toxic”. Further, the inhibition in data set [1] was determined as 42%.
Take `CS(=O)(=O)n1c(-c2ccccc2)cc2cccnc21`: the Activity result in data set [2] is given as “Non-toxic”. The inhibition result is “Dose-dependent effect” in data set [3] and 40% in data set [1].
As for `O=S(=O)(c1ccccc1)n1c(CCCCl)cc2cccnc21`, the inhibition in data set [1] was determined as 12%.
For `CCCCCc1cc2cccnc2n1S(=O)(=O)c1ccccc1`, in data set [1], the inhibition came to 10%.
As for `CC(O)c1cc2cccnc2n1S(=O)(=O)c1ccccc1` (configuration not stated), in data set [1], the inhibition was 30%.
